In US20260224537A1, “METHODS AND COMPOSITIONS FOR TREATING GLUCOCORTICOID-MEDIATED DISEASES” (SPARROW PHARMACEUTICALS, INC., priority 2023, published 2026):
“Also recorded” adds a separate entry of the source.

Legend:
[1] = test system: patients with polymyalgia rheumatica (PMR); test: Clinical trial in PMR: acute phase markers CRP, ESR, fibrinogen; type: in vivo, human; settings: change from baseline after 2 weeks daily treatment
Procedure: (§1) In an ongoing clinical trial, patients with polymyalgia rheumatica (PMR), who receive prednisolone 10 mg daily for at least 7 days prior to Day 1, are in remission or have low disease activity, and who meet the inclusion and exclusion criteria (Table 1), enter a 4-week treatment period.
(§2) From Day 1 to Week 2, participants continue to receive prednisolone 10 mg and placebo for SPI-62, each daily. From Week 2 to Week 4, participants receive prednisolone, at a dose or randomized doses assigned per cohort, and SPI-62 6 mg, each daily. The order of treatments are not randomized due to the long pharmacological half-life of SPI-62, which is understood to be approximately 4-6 weeks based on data collected up to 2-2.5 weeks after cessation of SPI-62 administration in prior clinical trials. Participants are blinded to the order of treatments. Participants are enrolled in cohorts of approximately 12. • During Cohort 1, 12 participants received prednisolone 10 mg with SPI-62 6 mg. Two participants were erroneously dosed with SPI-62 on Day 1. […] Two participants' prednisolone dose was increased to 15 mg prior to Week 4 following adverse events of PMVR aggravated. […]
Criterion 2—Acute phase markers C-reactive protein (CRP) and erythrocyte sedimentation rate (ESR), which are standard parameters clinicians use to quantitate systemic inflammation in PMR. […]

[2] = Prior clinical trials of SPI-62 (without glucocorticoids); settings: human, in vivo; based on data collected up to 2-2.5 weeks after cessation of SPI-62 administration in prior clinical trials; read-out: pharmacological half-life
Procedure: From Day 1 to Week 2, participants continue to receive prednisolone 10 mg and placebo for SPI-62, each daily. From Week 2 to Week 4, participants receive prednisolone, at a dose or randomized doses assigned per cohort, and SPI-62 6 mg, each daily. The order of treatments are not randomized due to the long pharmacological half-life of SPI-62, which is understood to be approximately 4-6 weeks based on data collected up to 2-2.5 weeks after cessation of SPI-62 administration in prior clinical trials. Participants are blinded to the order of treatments. Participants are enrolled in cohorts of approximately 12. • During Cohort 1, 12 participants received prednisolone 10 mg with SPI-62 6 mg. Two participants were erroneously dosed with SPI-62 on Day 1. […] Two participants' prednisolone dose was increased to 15 mg prior to Week 4 following adverse events of PMVR aggravated. Those two participants' data are represented in the Figures in the PRL15 CLO6 regimen. […] Those two participants' data are represented in the Figures only in the PRL10 regimen. • During Cohort 2, 12 participants received prednisolone 15 mg (50% dose adjustment) with SPI-62 6 mg. All also received prednisolone 10 mg with placebo for SPI-62. • During Cohort 3, 11 participants received prednisolone 20 mg (100% dose adjustment from Cohort 1) with clofutriben (i.e., SPI-62) 6 mg. […]

[3] = test system: patients with diabetic peripheral neuropathy; settings: SPI-62 without prednisolone, at 6 weeks, prior trials; cited from earlier work
[4] = test system: patients with polymyalgia rheumatica (PMR); test: Clinical trial in PMR: 13-plex cytokine panel; type: in vivo, human; settings: SPI-62 6 mg co-administered with prednisolone; 2 weeks
Procedure: as §1
From Day 1 to Week 2, participants continue to receive prednisolone 10 mg and placebo for SPI-62, each daily. From Week 2 to Week 4, participants receive prednisolone, at a dose or randomized doses assigned per cohort, and SPI-62 6 mg, each daily. The order of treatments are not randomized due to the long pharmacological half-life of SPI-62, which is understood to be approximately 4-6 weeks based on data collected up to 2-2.5 weeks after cessation of SPI-62 administration in prior clinical trials. Participants are blinded to the order of treatments. Participants are enrolled in cohorts of approximately 12. • During Cohort 1, 12 participants received prednisolone 10 mg with SPI-62 6 mg. Two participants were erroneously dosed with SPI-62 on Day 1. […] Two participants' prednisolone dose was increased to 15 mg prior to Week 4 following adverse events of PMVR aggravated. Those two participants' data are represented in the Figures in the PRL15 CLO6 regimen. […] Those two participants' data are represented in the Figures only in the PRL10 regimen. • During Cohort 2, 12 participants received prednisolone 15 mg (50% dose adjustment) with SPI-62 6 mg. All also received prednisolone 10 mg with placebo for SPI-62. • During Cohort 3, 11 participants received prednisolone 20 mg (100% dose adjustment from Cohort 1) with clofutriben (i.e., SPI-62) 6 mg. All also received prednisolone 10 mg with placebo for SPI-62. […] That participant's data are represented in the Figures in the PRL10 and PRL10 CLO6 regimens. • During Cohort 4, 11 participants received prednisolone 30 mg (100% dose adjustment from Cohort 2) with clofutriben (i.e., SPI-62) 6 mg. • Two additional participants dropped out of the trial before they received clofutriben. Those participants' data are represented in the Figures in the PRL10 regimen. […]

[5] = molecular target: T1, hepatic HSD-1 (Homo sapiens, UniProt P28845); test: Urinary ratio (tetrahydrocortisol+allotetrahydrocortisol)/tetrahydrocortisone, biomarker of hepatic HSD-1 activity; type: in vivo
T1 construct: confirm the pharmacological effect of SPI-62 on hepatic HSD-1 activity; from tissue; host or cells: liver (hepatocytes) of trial subjects, in vivo; read out through urinary steroid metabolites
T1 sequence (P28845 whole entry): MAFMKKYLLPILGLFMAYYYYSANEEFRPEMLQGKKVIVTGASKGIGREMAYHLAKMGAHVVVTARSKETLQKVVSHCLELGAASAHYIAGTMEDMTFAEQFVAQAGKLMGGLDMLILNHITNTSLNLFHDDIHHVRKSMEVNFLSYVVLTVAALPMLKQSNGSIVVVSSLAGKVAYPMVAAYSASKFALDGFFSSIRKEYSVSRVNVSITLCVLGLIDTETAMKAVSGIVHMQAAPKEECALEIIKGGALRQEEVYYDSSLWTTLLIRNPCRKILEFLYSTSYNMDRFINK
Procedure: Data from all cohorts were analyzed together to confirm the pharmacological effect of SPI-62 on hepatic HSD-1 activity. In hepatocytes, 5- and 3-steroid reductases, the latter a liver-specific enzyme, convert cortisol and cortisone to tetrahydro metabolites which are excreted in urine. The urinary ratio (tetrahydrocortisol+allotetrahydrocortisol)/tetrahydrocortisone is an accepted biomarker of hepatic HSD-1 activity. Morning spot urine samples were collected at Baseline (BL), after 2 weeks of prednisolone 10 mg treatment (PRL), after 2 weeks of prednisolone 10-30 mg+clofutriben 6 mg treatment (PRL CLO6), and after 4 weeks washout following the last clofutriben dose (WO). […] The similarity between BL and PBO is an example of the repeatability of the HSD-1 ratio in spot urine samples.

[6] = test system: patients with polymyalgia rheumatica (PMR); test: Clinical trial in PMR: circulating cell counts (lymphoid lineages by quantitative PCR; monocytes, neutrophils, platelets); type: in vivo, human
Procedure: as §1
(§3) From Day 1 to Week 2, participants continue to receive prednisolone 10 mg and placebo for SPI-62, each daily. From Week 2 to Week 4, participants receive prednisolone, at a dose or randomized doses assigned per cohort, and SPI-62 6 mg, each daily. The order of treatments are not randomized due to the long pharmacological half-life of SPI-62, which is understood to be approximately 4-6 weeks based on data collected up to 2-2.5 weeks after cessation of SPI-62 administration in prior clinical trials. Participants are blinded to the order of treatments. Participants are enrolled in cohorts of approximately 12. • During Cohort 1, 12 participants received prednisolone 10 mg with SPI-62 6 mg. Two participants were erroneously dosed with SPI-62 on Day 1. […] Two participants' prednisolone dose was increased to 15 mg prior to Week 4 following adverse events of PMVR aggravated. Those two participants' data are represented in the Figures in the PRL15 CLO6 regimen. […] Those two participants' data are represented in the Figures only in the PRL10 regimen. • During Cohort 2, 12 participants received prednisolone 15 mg (50% dose adjustment) with SPI-62 6 mg. All also received prednisolone 10 mg with placebo for SPI-62. • During Cohort 3, 11 participants received prednisolone 20 mg (100% dose adjustment from Cohort 1) with clofutriben (i.e., SPI-62) 6 mg. All also received prednisolone 10 mg with placebo for SPI-62. […] That participant's data are represented in the Figures in the PRL10 and PRL10 CLO6 regimens. • During Cohort 4, 11 participants received prednisolone 30 mg (100% dose adjustment from Cohort 2) with clofutriben (i.e., SPI-62) 6 mg. • Two additional participants dropped out of the trial before they received clofutriben. Those participants' data are represented in the Figures in the PRL10 regimen.
FIGS. 1-26 compare the change from baseline during two weeks of treatment with 10 mg prednisolone and placebo (PRL 10), 10 mg prednisolone and 6 mg clofutriben (PRL10 CLO6), 15 mg prednisolone and 6 mg clofutriben (PRL15 CLO6), 20 mg prednisolone and 6 mg clofutriben (PRL20 CLO6), and 30 mg prednisolone and 6 mg clofutriben (PRL30 CLO6). The central horizontal line of each diamond represents the mean of the observed data. The top and bottom vertices represent the 95% confidence interval of the mean. […]
Counts of several circulating lymphoid cell types were determined by quantitative PCR for lineage-specific DNA methylation patterns. […]

[7] = test system: patients with polymyalgia rheumatica (PMR); test: Clinical trial in PMR: assessment of prednisolone toxicity (bone turnover, lipids, glycemic control, coagulation, ECG heart rate, HPA axis); type: in vivo, human
Procedure: as §1, §3
FIGS. 1-26 compare the change from baseline during two weeks of treatment with 10 mg prednisolone and placebo (PRL 10), 10 mg prednisolone and 6 mg clofutriben (PRL10 CLO6), 15 mg prednisolone and 6 mg clofutriben (PRL15 CLO6), 20 mg prednisolone and 6 mg clofutriben (PRL20 CLO6), and 30 mg prednisolone and 6 mg clofutriben (PRL30 CLO6). The central horizontal line of each diamond represents the mean of the observed data. The top and bottom vertices represent the 95% confidence interval of the mean. The top and bottom ‘overlap lines’ would indicate statistically significant difference between groups under assumptions of normal data distribution, equal variances, and lack of covariance with baseline value. As one or more of those assumptions is violated for many of the datasets, statistical significance should not be inferred based on the overlap lines in FIGS. 1-26.
Assessment of prednisolone toxicity focused first on bone turnover biomarkers, which were expected to be the most sensitive based on published evidence of substantial changes within a few days of glucocorticoid administration that correlated with hepatic HSD-1 activity. SPI-62 was associated with changes consistent with an anti-GIOP phenotype, i.e., increases of the bone formation biomarkers OC and P1NP (FIG. 12), and decreases of the bone resorption biomarker CTX (FIG. 13).
Whether GC-associated HDL increase should be considered GC toxicity is not clear. […] About half of the participants (represented by colored circles) were on cholesterol-lowering agents, while no participants received any additional triglyceride lowering agents. The improvements in cholesterol were attributed mainly to a decrease in HDL, representing a reversal of the HDL-increasing effect of GC by clofutriben. […]

[8] = prior trials, participants did not receive GCs; cited from earlier work
[9] = test system: healthy adults; settings: dexamethasone 3 mg, 5 days; cited from earlier work
[10] = test system: patients with polymyalgia rheumatica (PMR); test: Clinical trial in polymyalgia rheumatica: PMR disease control, adverse events of PMR aggravated and relapse (Criterion 1); type: in vivo, human; settings: 2 weeks daily treatment
Procedure: as §1
as §2, with “aggravated. Those two participants' data are represented in the Figures in the PRL15 CLO6 regimen.” for “aggravated.”

[11] = PMR patients, change from baseline after 2 weeks daily treatment
[12] = co-administration with prednisolone at any prednisolone dose, 2 weeks
[13] = patients receiving prednisolone, relative to placebo

## Cn1c(-c2ccc(C(N)=O)cc2F)nnc1C(C)(C)Oc1c(F)cc(Cl)cc1F [SPI-62, 4-(5-(2-(4-chloro-2,6-difluorophenoxy)propan-2-yl)-4-methyl-4H-1,2,4-triazol-3-yl)-3-fluorobenzamide]
[1]
  fibrinogen (PF) level: increased
[2]
  half-life: 28 to 42 days
[3]
  HbA1c: clinically meaningful decrease
[4]
  IL-1 receptor antagonist (IL-1RA) level: did not show sensitivity to SPI-62
  granulocyte colony stimulating factor (G-CSF) level: did not show sensitivity to SPI-62
  interferon gamma (IFNγ) level: did not show sensitivity to SPI-62
[5]; 4 weeks after the last dose of SPI-62
  hepatic HSD-1 inhibition after washout: Substantial hepatic HSD-1 inhibition
[5]; after 2 weeks of prednisolone 10-30 mg + clofutriben 6 mg
  hepatic HSD-1 inhibition: full hepatic HSD-1 inhibition
[5]; morning spot urine after 2 weeks of prednisolone 10-30 mg + clofutriben 6 mg
  urinary ratio (tetrahydrocortisol+allotetrahydrocortisol)/tetrahydrocortisone, mean value: ≤ 0.2
[6]; [11]
  monocyte count: anticipated increases
  neutrophil count: anticipated increases
  platelet count: anticipated increases
[6]; SPI-62 6 mg co-administered with prednisolone, 2 weeks
  counts of circulating lymphoid cell types (B, IL-6R+, memory B, CD3+T, Th17, Treg): decreases of all counted lineages, which were not fully ameliorated by prednisolone dose adjustment
[7]; [11]
  HOMA-IR: not sensitive
  HbA1c: not sensitive; also recorded: close to zero
  activated partial thromboplastin time (APTT): improve
  bone formation biomarker BSAP: low sensitivity
  bone formation biomarker P1NP: increases
  bone formation biomarker osteocalcin (OC): increases
  bone resorption biomarker CTX: decreases
[7]; PMR patients, change from baseline after 2 weeks daily treatment, compared to placebo
  morning serum cortisol: increase
[7]; [12]
  Prothrombin International Normalized Ratio (INR): not observed to be sensitive
  Prothrombin Time (PT): not observed to be sensitive
[7]; patients receiving prednisolone, clofutriben compared to placebo
  plasma ACTH: increase
[7]; [13]
  DHEA-S: increase, within or close to the reference range
  testosterone: increase, within or close to the reference range
[7]; patients that received prednisolone
  hypothalamic-pituitary-adrenal (HPA) axis: de-repression
[8]
  effect on ECG heart rate: No effect

## C[C@@H]1C[C@H]2[C@@H]3CCC4=CC(=O)C=C[C@]4(C)[C@@]3(F)[C@@H](O)C[C@]2(C)[C@@]1(O)C(=O)CO [dexamethasone]
[9]
  ECG heart rate decrease: approximately 12 bpm
  HDL cholesterol: clinically meaningful increase
  LDL cholesterol: not particularly sensitive
  triglycerides: not particularly sensitive

## C[C@]12C=CC(=O)C=C1CC[C@@H]1[C@@H]2[C@@H](O)C[C@@]2(C)[C@H]1CC[C@]2(O)C(=O)CO [prednisolone, reference compound]
[10]; participants with event/participants
  incidence of adverse events of PMR aggravated: 0/50
[10]; participants with relapse/participants
  PMR relapse (increase of PMR symptoms or disease activity such that a prednisolone dose increase was indicated): 0/50
[7]; [11]
  HbA1c: decrease
  LDL cholesterol: encompassed zero
  cholesterol: encompassed zero
  triglycerides: encompassed zero
